According to patent US20080210174A1, “Increasing the Protein Concentration of Animal Organisms” (BASF AKTIENGESELLSCHAFT, priority 2004, published 2008):

Legend:
ATP:citrate lyase = ATP:citrate lyase from Mucor circinelloides; cited from earlier work
[1] = target: T1, human cytosol malate enzyme (Homo sapiens, UniProt P48163); settings: cited from earlier work
T1 sequence (P48163 1-572): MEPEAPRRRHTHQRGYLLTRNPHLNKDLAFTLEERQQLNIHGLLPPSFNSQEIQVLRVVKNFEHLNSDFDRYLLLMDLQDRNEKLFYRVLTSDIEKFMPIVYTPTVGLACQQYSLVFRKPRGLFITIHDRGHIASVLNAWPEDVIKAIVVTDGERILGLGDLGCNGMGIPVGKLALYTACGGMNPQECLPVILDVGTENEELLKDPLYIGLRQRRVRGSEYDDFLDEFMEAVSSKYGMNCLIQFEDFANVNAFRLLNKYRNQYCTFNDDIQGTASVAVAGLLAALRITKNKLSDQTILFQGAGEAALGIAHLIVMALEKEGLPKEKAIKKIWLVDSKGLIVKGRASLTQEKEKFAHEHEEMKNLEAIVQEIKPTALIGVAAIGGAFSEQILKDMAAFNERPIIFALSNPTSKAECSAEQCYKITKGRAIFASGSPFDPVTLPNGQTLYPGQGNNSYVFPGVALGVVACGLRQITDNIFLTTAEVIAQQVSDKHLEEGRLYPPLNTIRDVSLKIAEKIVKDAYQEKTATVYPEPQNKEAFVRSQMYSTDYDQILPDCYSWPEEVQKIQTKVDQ

[2] = tested on: conversion of carbohydrates to fatty acids; settings: rats on a low-fat, carbohydrate-rich diet; cited from earlier work
[3] = target: human mitochondrial malate enzyme (Homo sapiens, UniProt P23368); settings: cited from earlier work
Chain of human mitochondrial malate enzyme (P23368 19-584): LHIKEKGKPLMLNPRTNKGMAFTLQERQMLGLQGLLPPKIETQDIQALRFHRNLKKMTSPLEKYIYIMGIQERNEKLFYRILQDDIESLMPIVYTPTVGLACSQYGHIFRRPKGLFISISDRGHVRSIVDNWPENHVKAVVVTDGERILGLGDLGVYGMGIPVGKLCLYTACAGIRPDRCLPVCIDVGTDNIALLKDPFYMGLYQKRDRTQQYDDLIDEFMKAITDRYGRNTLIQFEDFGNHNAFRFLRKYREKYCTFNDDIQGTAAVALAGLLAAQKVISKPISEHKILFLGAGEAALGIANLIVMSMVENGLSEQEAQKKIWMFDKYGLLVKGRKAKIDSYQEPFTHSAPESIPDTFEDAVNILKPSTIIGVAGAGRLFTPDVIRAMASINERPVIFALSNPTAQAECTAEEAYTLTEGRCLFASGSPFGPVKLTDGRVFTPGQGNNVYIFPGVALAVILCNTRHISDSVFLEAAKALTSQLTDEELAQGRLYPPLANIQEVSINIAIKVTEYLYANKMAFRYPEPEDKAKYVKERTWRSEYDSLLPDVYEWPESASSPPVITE

Mucor circinelloides = settings: fungus Mucor circinelloides; cited from earlier work
[4] = tested on: mice (type CD-1M (ICR) BR); test: Feeding experiment in mice: whole body crude protein, crude fat, P/F quotient, feed intake, weight gain; format: in vivo; settings: 21 days; for Body fat / Body protein / P/F quotient: mice
Protocol: 1. Determination of Whole Body Crude Protein • 1) Method for determining the content of crude protein in mice from the nitrogen content, modified according to Kjeldahl (Kjeldahl, J.: Z. anal. Chem. 22, 366-382. 1883). • 2) Principle • The experimental animals were slaughtered and after removing the gastrointestinal tract, the weight of the animals was determined by weighing. The experimental animals were then shock-frozen in liquid nitrogen and homogenized. The resultant samples were subjected to wet digestion. The acidic digest was made alkaline with sodium hydroxide solution. The ammonia released was removed by distillation and collected in a defined amount of sulfuric acid, the excess of which was titrated with sodium hydroxide solution. • 3) Reagents • 3.1) Potassium sulfate, analytical grade • 3.2) Catalyst: copper(II) oxide, CuO, analytical grade, or crystalline copper sulfate, CuSO4.5H2O, analytical grade, or mercury, or mercury oxide, HgO, analytical grade. • 3.3) Sulfuric acid; analytical grade, D 1.84 • 3.4) Pumice stone, granulated, washed with hydrochloric acid and ignited • 3.5) Zinc, analytical grade, granulated • 3.6) Sulfuric acid, 0.1 N; • 3.7) Sulfuric acid, 0.5 N • 3.8) Methyl red indicator: 300 mg of methyl red are dissolved in 100 ml of ethanol, from 94 to 96% strength (VN). • 3.9) Sodium hydroxide solution, analytical grade, 40% strength (WN) • 3.10) Sodium sulfide solution, analytical grade, saturated • 3.11) Sodium thiosulfate solution, 8% strength (WN), Na2S2O3.5H2O, analytical grade • 3.12) Sodium hydroxide solution, 0.1 N; • 3.13) Sodium hydroxide solution, 0.25 N • 4) Apparatus • Digestion apparatus and distillation apparatus according to Kjeldahl (see above); • 5) Digestion • 1 g of the sample was weighed out accurately to 1 mg and placed in the flask of the digestion apparatus. 10 g of potassium sulfate […], a suitable amount of the catalyst (3.2) (from 0.3 to 0.4 g of copper oxide or from 0.9 to 1.2 g of copper sulfate or one drop of mercury or from 0.6 to 0.7 g of mercury oxide), 25 ml of sulfuric acid (3.3) and a few grains of pumice (3.4) were added and the flask contents were mixed. The flask was first heated moderately, then, with shaking from time to time, heated up to carbonization of the substance and disappearance of the foam, and finally intensively up to the uniform boiling of the liquid. Superheating of the flask walls and deposition of organic parts onto the flask walls was avoided. As soon as the solution was clear and colorless (light green when a copper-containing catalyst is used), this was kept boiling for a further 1 hour; thereafter it was allowed to cool. • 6) Distillation • With continuous swirling, from 250 to 356 ml of water were added with care, in which case the sulfates should dissolve completely. The mixture was allowed to cool; then some zinc granules (3.5) were added. Between 10 ml and 25 ml of sulfuric acid (3.6) or (3.7), depending on the expected nitrogen content, and a few drops of methyl red indicator (3.8) were added to the distillation apparatus collection flask. The flask was connected to the condenser of the distillation apparatus and its outermost end was lowered at least 1 cm deep into the liquid of the collection flask. 100 ml of sodium hydroxide solution (3.9) were slowly charged via the stopcock funnel into the distillation flask. When a mercury catalyst is used, in addition, 10 ml of sodium sulfide solution (3.10) or 25 ml of sodium thiosulfate solution (3.11) were added to the distillation flask. The flask is heated in such a manner that, in 30 min, about 150 ml of the liquid had distilled off. After the expiry of this time, the neutral reaction of the overhead distillate was controlled using litmus paper. If the reaction was alkaline, the distillation was continued. […] During the distillation operation, the contents of the collection flask were swirled from time to time and its color was observed. […]

malate enzyme = malate enzyme from Mucor circinelloides; cited from earlier work
malate dehydrogenase = malate dehydrogenase from Mucor circinelloides; cited from earlier work
[5] = animals fed with tartronic acid (0.25% and 0.75% of feed) vs control

In the case of O=C(O)C(O)C(=O)O [Tartronic acid, tartronic acid], the “inhibitory activity on enzyme” value (ATP:citrate lyase) is given as “direct inhibitory activity”, the “inhibitory activity on enzyme” value [1] is given as “direct inhibitory activity” and the “effect on conversion of carbohydrates to fatty acids” value [2] is given as “inhibits the conversion of carbohydrates to fatty acids”. The “inhibitory activity on enzyme” value [3] was “direct inhibitory activity”, the “in vivo inhibitory activity, effect on lipid metabolism” value (Mucor circinelloides) was “not sufficient to have a detectable effect on lipid metabolism” and the Body fat ([4]; 0.25% by weight of the feed) was 20.25 % by weight of body weight. The Body protein ([4]; 0.25% by weight of the feed) was 65.93 % by weight of body weight, the P/F quotient ([4]; 0.25% by weight of the feed) was 3.53 and the Body fat ([4]; 0.75% by weight of the feed) was 20.65 % by weight of body weight. For the same compound, the Body protein ([4]; 0.75% by weight of the feed) was 66.04 % by weight of body weight, the P/F quotient ([4]; 0.75% by weight of the feed) was 3.28 and the “P/F quotient, change” value [4, 5] was “increase in the P/F quotient”. The “PPTW (percentage protein of total weight), change” value [4, 5] was “increase in the PPTW”, the “inhibitory activity on enzyme” value (malate enzyme) was “direct inhibitory activity” and the “inhibitory activity on enzyme” value (malate dehydrogenase) was “direct inhibitory activity”.
